Like-named read-outs stand apart in the source and are kept apart here. Starred links: 1 amine or outer side, 2 acyl side, 3 side chain; linkers in the order of their positions; H or OH if unused. Non-standard residues stand in square brackets, D forms with d. Residues, ends and D or L forms follow the SMILES beside them. *: point of attachment. Me3N+(CH2)2O(CH2)2O(CH2)2CO = C[N+](C)(C)CCOCCOCCC(=O)*; Trp(7-Me) = Cc1cccc2c(C[C@H](N)C(=O)O)c[nH]c12; C20 diacid = O=C(O)CCCCCCCCCCCCCCCCCCC(=O)*; d(γGlu) = O=C(O)[C@@H](CCC(=O)[*:2])N[*:1]; C18 diacid = O=C(O)CCCCCCCCCCCCCCCCC(=O)*; γGlu = O=C(O)[C@H](CCC(=O)[*:2])N[*:1]; 3Pal = N[C@@H](Cc1cccnc1)C(=O)O; Nle = CCCC[C@H](N)C(=O)O; β3hA = C[C@H](N)CC(=O)O; Dap = NC[C@H](N)C(=O)O; AEEA = NCCOCCOCC(=O)O; βAla = NCCC(=O)O; Sar = CNCC(=O)O

A short description of series [1]: Pharmacokinetics after intravenous peptide administration in mice. The arrangement: species or system C57BL/6 mice. Conditions: in vivo. How it is done:
GPR-10 and peptides were dosed IV at 2 mg/kg as a formulation of 0.4 mg/mL in […]+65% water (pH 6-7).

A further series addresses T1, human GRP receptors (Homo sapiens, UniProt P30550).
T1 construct: host or cells: U2OS
Briefly: IP1 GRPR activity: HTRF IP1-Gq assay in U2OS cells stably expressing human GRP receptors. It counts as cell-based. Conditions: 90 minutes incubation, read-out: hIP1 GRPR EC50. How it is done: U2OS cells stably expressing human GRP receptors (DiscoverX, #93-0229C3) were cultured according to manufacturer's instructions. Cells were cultured to […], then collected using AccuTase (Innovative Cell Technologies, #AT104). Cells were washed and plated on a poly-D-lysine-coated 384-well plate (ThermoFisher, #A3890401) at a density of 2,500 cells/well in […] assay buffer (AssayComplete Cell Plating 5 Reagent, DiscoverX #93-0563R5), then incubated overnight at 37° C. and 5% C02. The following morning, a homogenous time-resolved fluorescence (HTRF) assay was performed in a 384-well plate format using the IP1-Gq assay kit (Cisbio, 62IPAPEB). Test compounds were made as a stock in DMSO, then serially diluted to generate 10-point dose response curves in IP1 stimulation buffer. Five microliters of the prepared compounds were then added to the plate containing cells and assay buffer in duplicate, and the cells were incubated at 37° C. and 5% CO2 for 90 minutes. Following compound incubation, […] of IP1 lysis/detection buffer (prepared according to manufacturer's instructions) was added to each well, and the plates were incubated at room temperature for 1 hour. HTRF signals were measured using a plate reader (ClarioSTAR), calculating the ratio between emissions at 665 nm and 620 nm (HTRF ratio). HTRF ratio for positive (Max, […]; SEQ ID NO. 45) and negative (Min, DMSO) controls were used to normalize HTRF data and generate values for % activity. EC50 and Max activity values were determined using a standard 4-parameter fit using GraphPad Prism.

The mark [2] stands for this setting: mouse, C57BL/6 mice, IV 2 mg/kg, formulation of 0.4 mg/mL, read-out: T1/2 (converted).

T1 sequence (P30550 whole entry): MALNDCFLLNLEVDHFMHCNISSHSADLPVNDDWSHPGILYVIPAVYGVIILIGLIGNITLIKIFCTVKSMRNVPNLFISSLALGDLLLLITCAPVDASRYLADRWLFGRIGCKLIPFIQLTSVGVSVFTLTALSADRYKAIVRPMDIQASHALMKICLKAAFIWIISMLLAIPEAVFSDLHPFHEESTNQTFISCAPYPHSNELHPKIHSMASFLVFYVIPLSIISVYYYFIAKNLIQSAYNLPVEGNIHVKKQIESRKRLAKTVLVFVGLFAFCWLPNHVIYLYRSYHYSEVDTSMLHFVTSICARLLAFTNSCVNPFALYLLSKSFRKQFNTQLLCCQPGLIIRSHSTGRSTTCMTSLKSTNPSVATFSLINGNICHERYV

Regarding `CCCCCCCCCCCCCCCC(=O)N[C@H](CCC(=O)NCCOCCOCC(=O)NCCOCCOCC(=O)NCC(=O)N[C@@H](CC(N)=O)C(=O)N[C@@H](Cc1c[nH]cn1)C(=O)N[C@@H](Cc1c[nH]c2ccccc12)C(=O)N[C@@H](C)C(=O)N[C@H](C(=O)NCC(=O)N[C@@H](Cc1c[nH]cn1)C(=O)N[C@@H](CC(C)C)C(=O)N[C@@H](CCSC)C(N)=O)C(C)C)C(=O)O` [Peptide 8, Palmitoyl-D-γGlu-OEG-OEG-Gly-Asn-His-Trp-Ala-Val-Gly-His-Leu-Met-NH2], the clearance in series [1] (mouse, C57BL/6 mice, IV 2 mg/kg, formulation of 0.4 mg/mL, read-out: CL) stood at 1.2 mL/min/kg. Also, in series [1] (setting [2]), the half-life is 120 min.

Turning to `CCCC[C@H](NC(=O)[C@H](CC(C)C)NC(=O)[C@H](Cc1c[nH]cn1)NC(=O)[C@@H](C)NC(=O)[C@@H](NC(=O)[C@H](C)NC(=O)[C@H](Cc1c[nH]c2ccccc12)NC(=O)[C@H](Cc1c[nH]cn1)NC(=O)[C@H](CC(N)=O)NC(=O)CN)C(C)C)C(N)=O` [Peptide 6, Gly-Asn-His-Trp-Ala-Val-D-Ala-His-Leu-Nle-NH2], the half-life in series [1] (setting [2]) is less than 6 min.

As to `CSCC[C@H](NC(=O)[C@H](CC(C)C)NC(=O)[C@H](Cc1cnc[nH]1)NC(=O)CNC(=O)[C@@H](NC(=O)[C@H](C)NC(=O)[C@H](Cc1c[nH]c2ccccc12)NC(=O)[C@H](Cc1cnc[nH]1)NC(=O)[C@H](CC(N)=O)NC(=O)CN)C(C)C)C(N)=O` [GRP10, G-N-H-W-A-V-G-H-L-M-NH2, reference compound], in series [1] (C57BL/6, mouse, iv, 2 mg/kg), the clearance amounted to 4540 mL/min/kg and the half-life is 18 min.

The term EC50 denotes the concentration at which the effect is half-maximal. Take `CCCC[C@H](NC(=O)[C@H](CC(C)C)NC(=O)[C@H](Cc1c[nH]cn1)NC(=O)[C@@H](C)NC(=O)[C@@H](NC(=O)[C@@H](C)NC(=O)[C@H](Cc1c[nH]c2ccccc12)NC(=O)[C@H](Cc1c[nH]cn1)NC(=O)[C@H](CC(N)=O)NC(=O)CNC(=O)COCCOCCNC(=O)COCCOCCNC(=O)CC[C@H](NC(=O)CCCCCCCCCCCCCCCCC(=O)O)C(=O)O)C(C)C)C(=O)N(C)CC(N)=O` [Peptide 115, Octadecanedioyl-γGlu-OEG-OEG-Gly-Asn-His-Trp-D-Ala-Val-D-Ala-His-Leu-Nle-Sar-NH2] ({C18 diacid-γGlu-AEEA-AEEA}-GNHW[dA]V[dA]HL[Nle][Sar]-NH2): the EC50 at human GRP receptors is greater than 10000 nM.

For the compound `CCCC[C@H](NC(=O)[C@H](CC(C)C)NC(=O)[C@H](Cc1c[nH]cn1)NC(=O)[C@@H](C)NC(=O)[C@@H](NC(=O)[C@H](C)NC(=O)[C@H](Cc1c[nH]c2ccccc12)NC(=O)[C@H](Cc1cccnc1)NC(=O)[C@H](CC(N)=O)NC(=O)CNC(=O)COCCOCCNC(=O)COCCOCCNC(=O)CC[C@@H](NC(=O)CCCCCCCCCCCCCCCCC(=O)O)C(=O)O)C(C)C)C(=O)N(C)CC(N)=O` [Peptide 72, Octadecanedioyl-D-γGlu-OEG-OEG-Gly-Asn-3Pal-Trp-Ala-Val-D-Ala-His-Leu-Nle-Sar-NH2] ({C18 diacid-d(γGlu)-AEEA-AEEA}-GN[3Pal]WAV[dA]HL[Nle][Sar]-NH2), at human GRP receptors, the half-maximal effective concentration (EC50) amounted to 1050 nM.

For the compound `CCCC[C@H](NC(=O)[C@H](CC(C)C)NC(=O)[C@H](Cc1c[nH]cn1)NC(=O)[C@@H](C)NC(=O)[C@@H](NC(=O)[C@H](C)NC(=O)[C@H](Cc1c[nH]cn1)NC(=O)[C@H](Cc1c[nH]cn1)NC(=O)[C@H](CC(N)=O)NC(=O)CNC(=O)COCCOCCNC(=O)COCCOCCNC(=O)CC[C@@H](NC(=O)CCCCCCCCCCCCCCCCC(=O)O)C(=O)O)C(C)C)C(N)=O` [Peptide 68, Octadecanedioyl-D-γGlu-OEG-OEG-Gly-Asn-His-His-Ala-Val-D-Ala-His-Leu-Nle-NH2] ({C18 diacid-d(γGlu)-AEEA-AEEA}-GNHHAV[dA]HL[Nle]-NH2), on human GRP receptors, the EC50 is greater than 10000 nM.

`CCCC[C@H](NC(=O)[C@H](CC(C)C)NC(=O)[C@H](Cc1c[nH]cn1)NC(=O)[C@@H](C)NC(=O)[C@@H](NC(=O)[C@H](C)NC(=O)[C@H](Cc1c[nH]c2ccccc12)NC(=O)[C@H](Cc1c[nH]cn1)NC(=O)[C@H](CC(N)=O)NC(=O)[C@H](CCCNC(=N)N)NC(=O)COCCOCCNC(=O)COCCOCCNC(=O)CC[C@H](NC(=O)CCCCCCCCCCCCCCCCC(=O)O)C(=O)O)C(C)C)C(=O)O` [Peptide 156, Octadecanedioyl-γGlu-OEG-OEG-Arg-Asn-His-Trp-Ala-Val-D-Ala-His-Leu-Nle] ({C18 diacid-γGlu-AEEA-AEEA}-RNHWAV[dA]HL[Nle]-OH): the EC50 at human GRP receptors was found to be 358 nM.

For the compound `CCCC[C@H](NC(=O)[C@H](CC(C)C)NC(=O)[C@H](Cc1c[nH]cn1)NC(=O)[C@@H](C)NC(=O)[C@@H](NC(=O)[C@H](C)NC(=O)[C@H](Cc1c[nH]c2ccccc12)NC(=O)[C@H](Cc1c[nH]cn1)NC(=O)[C@H](CC(N)=O)NC(=O)CNC(=O)COCCOCCNC(=O)COCCOCCNC(=O)CC[C@H](NC(=O)CCCCCCCCCCCCCCCCC(=O)O)C(=O)O)C(C)C)C(=O)N[C@@H](CCCNC(=N)N)C(N)=O` [Peptide 114, Octadecanedioyl-γGlu-OEG-OEG-Gly-Asn-His-Trp-Ala-Val-D-Ala-His-Leu-Nle-Arg-NH2] ({C18 diacid-γGlu-AEEA-AEEA}-GNHWAV[dA]HL[Nle]R-NH2), at human GRP receptors, the EC50 is greater than 10000 nM.

Turning to `CCCC[C@H](NC(=O)[C@H](CC(C)C)NC(=O)[C@H](Cc1c[nH]cn1)NC(=O)[C@@H](C)NC(=O)[C@@H](NC(=O)[C@@H](C)NC(=O)[C@H](Cc1c[nH]c2ccccc12)NC(=O)[C@H](Cc1c[nH]cn1)NC(=O)[C@H](CC(=O)O)NC(=O)CNC(=O)COCCOCCNC(=O)COCCOCCNC(=O)CC[C@H](NC(=O)CCCCCCCCCCCCCCCCC(=O)O)C(=O)O)C(C)C)C(N)=O` [Peptide 139, Octadecanedioyl-γGlu-OEG-OEG-Gly-Asp-His-Trp-D-Ala-Val-D-Ala-His-Leu-Nle-NH2] ({C18 diacid-γGlu-AEEA-AEEA}-GDHW[dA]V[dA]HL[Nle]-NH2), the EC50 at human GRP receptors was greater than 10000 nM.

`CCCC[C@H](NC(=O)[C@H](CC(C)C)NC(=O)[C@H](Cc1c[nH]cn1)NC(=O)C[C@H](C)NC(=O)[C@@H](NC(=O)[C@H](C)NC(=O)[C@H](Cc1c[nH]c2c(C)cccc12)NC(=O)[C@H](Cc1c[nH]cn1)NC(=O)[C@H](CC(N)=O)NC(=O)CNC(=O)COCCOCCNC(=O)COCCOCCNC(=O)CC[C@H](NC(=O)CC[C@H](NC(=O)CCCCCCCCCCCCCCCCCCC(=O)O)C(=O)O)C(=O)O)C(C)C)C(N)=O` [Peptide 258, Eicosanedioyl-γGlu-γGlu-OEG-OEG-Gly-Asn-His-7MeTrp-Ala-Val-BABA-His-Leu-Nle-NH2] ({C20 diacid-γGlu-γGlu-AEEA-AEEA}-GNH[Trp(7-Me)]AV[β3hA]HL[Nle]-NH2): the EC50 on human GRP receptors was found to be 6 nM.

`CCCC[C@H](NC(=O)[C@H](CC(C)C)NC(=O)[C@H](Cc1c[nH]cn1)NC(=O)CCNC(=O)[C@@H](NC(=O)[C@H](C)NC(=O)[C@H](Cc1c[nH]c2ccccc12)NC(=O)[C@H](Cc1c[nH]cn1)NC(=O)[C@H](CNC(=O)CCOCCOCC[N+](C)(C)C)NC(=O)CNC(=O)COCCOCCNC(=O)COCCOCCNC(=O)CC[C@H](NC(=O)CCCCCCCCCCCCCCCCCCC(=O)O)C(=O)O)C(C)C)C(N)=O` [Peptide 262, Eicosanedioyl-γGlu-OEG-OEG-Gly-Dap(2CE-PEG-TMEA)-His-Trp-Ala-Val-β-Ala-His-Leu-Nle-NH2] ({C20 diacid-γGlu-AEEA-AEEA}-G[Dap](Me3N+(CH2)2O(CH2)2O(CH2)2CO)HWAV[βAla]HL[Nle]-NH2): the EC50 at human GRP receptors was found to be 4 nM.

Values taken from patent publication US20260176319A1, “PEPTIDE ANALOGS AND METHODS OF USING THE SAME” (Kallyope, Inc., priority 2024, published 2026).
